According to US20040044006A1, “Methods of use of quinolone compounds against pneumococcal and haemophilus bacteria” (priority 1999, published 2004):
≈ marks a conversion by molar mass, not a printed value.

Test system: quinolone-resistant Haemophilus influenzae strains
Assay: Microdilution MIC determination in HTM for quinolone-resistant Haemophilus influenzae strains
Format: cell-based
Protocol: Inocula were prepared from chocolate agar plates incubated for a full 24 hours by the direct colony suspension method as follows: In a tube of Mueller-Hinton broth (Difco), an organism suspension was made to a density of a 0.5 McFarland standard (1×10^8 CFU/ml). The latter inoculum was diluted in sterile saline such that final organisms suspensions in trays yielded colony counts of 3-8×10^5 CFU/ml. Frozen microdilution trays were obtained from MicroMedia Systems, Inc. (Cleveland, Ohio, USA). Each tray contained all antimicrobials prepared in freshly made HTM. Wells were inoculated with 100 μl suspensions and incubated in ambient air at 35° C. for 20-24 hours. The lowest drug concentration showing no growth was read as the MIC. Standard quality control strains, including H. influenzae ATCC 49766, H. influenzae ATCC 49247, Staphylococcus aureus ATCC 29213 and Escherichia coli ATCC 25922 were included with each run.

[1] = strain 1, GyrA S84→L, ParC S133→A N138→S, GyrB None, ParE None
[2] = strain 2, GyrA S84→F, ParC None, GyrB None, ParE S458→L
[3] = strain 3, GyrA S84→L, ParC S84→I, GyrB None, ParE None
[4] = strain 4, GyrA S84→F D88→N, ParC D83→N, GyrB None, ParE T459→S
[5] = strain 5, GyrA S84→Y, ParC E88→K, GyrB Q468→R, ParE G405→S
[6] = strain 6, GyrA S84→L A117→E, ParC S84→R, GyrB None, ParE D420→N
[7] = strain 7, GyrA S84→L A117→E, ParC S84→R, GyrB None, ParE D420→N
[8] = strain 8, GyrA S84→L A117→E, ParC S84→R, GyrB None, ParE D420→N
[9] = strain 9, GyrA S84→F D88→Y, ParC S84→R N138→S, GyrB None, ParE S458→A S474→N
[10] = strain 1, mutations S133-A N138-S, None, S84-L
[11] = strain 2, mutations NONE, S458-L, S84-F, None
[12] = strain 3, mutations S84-I, None, S84-L
[13] = strain 4, mutations D83-N, S458-S-T459, S84-F D88-N, Q468-R
[14] = strain 5, mutations E88-K, G405-S, S84-Y, None
[15] = strain 6, mutations S84-R, D420-N, S84-L A117-E, None
[16] = strain 7, mutations S84-R, D420-N, S84-L A117-E, None
[17] = strain 8, mutations S84-R, D420-N, S84-L A117-E, None
[18] = strain 9, mutations S84-R N138-S, S458-A S474-N, S84-F D88-Y, None

Compound	MICs [1]	MICs [2]	MICs [3]	MICs [4]	MICs [5]	MICs [6]	MICs [7]	MICs [8]	MICs [9]	MIC [10]	MIC [11]	MIC [12]	MIC [13]	MIC [14]	MIC [15]	MIC [16]	MIC [17]	MIC [18]	further results
O=C(O)c1cn(C2CC2)c2cc(N3CCNCC3)c(F)cc2c1=O [Cip]	0.5 µg/mL	0.25 µg/mL	1 µg/mL	1 µg/mL	1 µg/mL	2 µg/mL	2 µg/mL	2 µg/mL	8 µg/mL										
O=C(O)c1cn(C2CC2)c2cc(N3CCNCC3)c(F)cc2c1=O [Cipro]																			MIC (Haemophilus influenzae, strain 1, mutations S133-A N138-S, None, S84-L): 0.5 µg/mL (≈ 1.51 µM); MIC (Haemophilus influenzae, strain 2, mutations NONE, S458-L, S84-F, None): 0.25 µg/mL (≈ 0.754 µM); MIC (Haemophilus influenzae, strain 3, mutations S84-I, None, S84-L): 1 µg/mL (≈ 3.02 µM); MIC (Haemophilus influenzae, strain 4, mutations D83-N, S458-S-T459, S84-F D88-N, Q468-R): 1 µg/mL (≈ 3.02 µM); MIC (Haemophilus influenzae, strain 5, mutations E88-K, G405-S, S84-Y, None): 1 µg/mL (≈ 3.02 µM); MIC (Haemophilus influenzae, strain 6, mutations S84-R, D420-N, S84-L A117-E, None): 2 µg/mL (≈ 6.04 µM); MIC (Haemophilus influenzae, strain 7, mutations S84-R, D420-N, S84-L A117-E, None): 2 µg/mL (≈ 6.04 µM); MIC (Haemophilus influenzae, strain 8, mutations S84-R, D420-N, S84-L A117-E, None): 2 µg/mL (≈ 6.04 µM); MIC (Haemophilus influenzae, strain 9, mutations S84-R N138-S, S458-A S474-N, S84-F D88-Y, None): 8 µg/mL (≈ 24.1 µM)
CO/N=C1\CN(c2nc3c(cc2F)c(=O)c(C(=O)O)cn3C2CC2)CC1CN (stereo not drawn) [Gemi]										0.03 µg/mL (≈ 0.077 µM)	0.125 µg/mL (≈ 0.321 µM)	0.125 µg/mL (≈ 0.321 µM)	0.25 µg/mL (≈ 0.642 µM)	0.25 µg/mL (≈ 0.642 µM)	0.5 µg/mL (≈ 1.28 µM)	0.5 µg/mL (≈ 1.28 µM)	0.5 µg/mL (≈ 1.28 µM)	1 µg/mL (≈ 2.57 µM)	
Cc1c(F)c(N2CCNC(C)C2)cc2c1c(=O)c(C(=O)O)cn2C1CC1 (stereo not drawn) [Gre]	0.25 µg/mL	0.5 µg/mL	0.5 µg/mL	2 µg/mL	1 µg/mL	1 µg/mL	1 µg/mL	1 µg/mL	4 µg/mL										
Cc1c(F)c(N2CCNC(C)C2)cc2c1c(=O)c(C(=O)O)cn2C1CC1 (stereo not drawn) [Grepa]										0.25 µg/mL (≈ 0.696 µM)	0.5 µg/mL (≈ 1.39 µM)	0.5 µg/mL (≈ 1.39 µM)	2 µg/mL (≈ 5.56 µM)	1 µg/mL (≈ 2.78 µM)	1 µg/mL (≈ 2.78 µM)	1 µg/mL (≈ 2.78 µM)	1 µg/mL (≈ 2.78 µM)	4 µg/mL (≈ 11.1 µM)	
C[C@H]1COc2c(N3CCN(C)CC3)c(F)cc3c(=O)c(C(=O)O)cn1c23 [Lev]	0.5 µg/mL	0.25 µg/mL	1 µg/mL	0.5 µg/mL	1 µg/mL	2 µg/mL	2 µg/mL	2 µg/mL	4 µg/mL										
